In patent US11071731B2, “Allosteric modulators of the mu opioid receptor” (Chiromics, LLC, priority 2017, dated 2021):

Key:
[1] = molecular target: T1, mu opioid receptor (MOR) (Homo sapiens, UniProt P35372); assay: PathHunter β-arrestin recruitment assay, PAM mode with EC20 endomorphin-1; assay type: cell-based
Summary of the method: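 Enzyme fragment complementation read-out: β-gal ED fragment fused to receptor, EA fused to β-arrestin, recruitment restoring β-gal activity detected by chemiluminescence. EC50 and percent maximal response derived for each compound.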

[2] = molecular target: T1, mu opioid receptor (MOR); assay: Hit Hunter cAMP signaling assay (adenylyl cyclase inhibition), PAM mode with EC20 endomorphin-1; assay type: cell-based
[3] = maximal response for β-arrestin recruitment
[4] = β-arrestin recruitment, read-out: β-arr. EC50
[5] = cAMP EC50, adenylyl cyclase inhibition
[6] = maximal response for adenylyl cyclase inhibition
[7] = maximal response, β-arrestin recruitment
[8] = maximal response, adenylyl cyclase inhibition
[9] = adenylyl cyclase inhibition, read-out: cAMP EC50
[10] = β-arrestin recruitment, activity switching by MOR PAMs
[11] = β-arrestin recruitment, activity switching by MOR PAMs, read-out: β-arrestin EC50
[12] = adenylyl cyclase inhibition, activity switching by MOR PAMs
[13] = adenylyl cyclase inhibition, activity switching by MOR PAMs, read-out: cAMP EC50

T1 sequence (P35372 whole entry, the tested form may be a part): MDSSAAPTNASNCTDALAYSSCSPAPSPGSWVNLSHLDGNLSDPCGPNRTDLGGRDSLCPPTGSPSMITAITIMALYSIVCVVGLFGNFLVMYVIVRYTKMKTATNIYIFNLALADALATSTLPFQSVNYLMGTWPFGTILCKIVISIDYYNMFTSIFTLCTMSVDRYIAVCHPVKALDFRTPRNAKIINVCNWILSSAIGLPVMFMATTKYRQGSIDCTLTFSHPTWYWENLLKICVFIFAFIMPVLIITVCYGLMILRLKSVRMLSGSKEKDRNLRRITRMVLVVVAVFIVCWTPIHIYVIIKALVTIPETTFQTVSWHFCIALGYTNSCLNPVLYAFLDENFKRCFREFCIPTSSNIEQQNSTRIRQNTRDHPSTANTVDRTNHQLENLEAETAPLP

SMILES	β-arr Max. Resp. [1, 3]	EC50 [1, 4]	EC50 [2, 5]	cAMP Max. Resp. [2, 6]	β-arr Max. Resp. [1, 7]	cAMP Max. Resp. [2, 8]	EC50 [2, 9]	β-arrestin Max Response [1, 10]	EC50 [1, 11]	cAMP Max Resp. [2, 12]	EC50 [2, 13]
Fc1ccc(Cl)nc1N1CCCCC1c1cccc(C(F)(F)F)c1 (stereo not shown) [compound 263]	F (F represents a maximal response of > 60%)	0.7 to 2.1 µM	0.7 to 2.1 µM	D (D represents a maximal response of < 40%)	–	–	–	–	–	–	–
COc1ccc(C2CCCCN2c2nc(Cl)ncc2F)cc1C(F)(F)F (stereo not shown) [compound 289]	F (F represents a maximal response of > 60%)	0.7 to 2.1 µM	> 2.1 µM	D (D represents a maximal response of < 40%)	–	–	–	–	–	–	–
COc1ccc(C2CCCCN2S(=O)(=O)c2ccn(C)n2)cc1Br (stereo not shown) [compound 483]	–	> 2.1 µM	> 2.1 µM	–	D (D represents a maximal response of < 40%)	D (D represents a maximal response of < 40%)	–	–	–	–	–
Fc1cc(C2C3CCC(C3)N2c2nc(Cl)ncc2F)cc(C(F)(F)F)c1 (stereo not shown) [compound 139]	F (F represents a maximal response of > 60%)	> 2.1 µM	> 2.1 µM	E (E represents a maximal response of 40-60%)	–	–	–	–	–	–	–
CC(C)(O)C(=O)N1CCN(c2nc(Cl)ncc2F)C(c2cc(F)cc(C(F)(F)F)c2)C1 (racemic) [Compound 307]	D (D represents a maximal response of < 40%)	> 2.1 µM	–	F (F represents a maximal response of > 60%)	–	–	> 2.1 µM	–	–	–	–
Fc1ccc(Cl)nc1C1CCCCN1c1nc(Cl)ncc1F (stereo not shown) [compound 388]	D (D represents a maximal response of < 40%)	< 0.7 µM	< 0.7 µM	D (D represents a maximal response of < 40%)	–	–	–	–	–	–	–
O=S(=O)(c1ccc(Cl)cc1)N1CCCCC1c1cc(C(F)(F)F)ccn1 (racemic) [compound 79]	F (F represents a maximal response of > 60%)	> 2.1 µM	–	D (D represents a maximal response of < 40%)	–	–	> 2.1 µM	F (F represents a maximal response of >60%)	> 2.1 µM	D (D represents a maximal response of < 40%)	> 2.1 µM
Fc1cnc(Cl)nc1N1CCCCC1c1ccnc(Cl)c1 (stereo not shown) [compound 328]	D (D represents a maximal response of < 40%)	< 0.7 µM	< 0.7 µM	D (D represents a maximal response of < 40%)	–	–	–	–	–	–	–
Fc1ccc(Cl)cc1CN1CCOCC1c1cccc(C(F)(F)F)n1 (racemic) [Compound 191]	F (F represents a maximal response of > 60%)	0.7 to 2.1 µM	–	E (E represents a maximal response of 40-60%)	–	–	0.7 to 2.1 µM	–	–	–	–
Fc1cnc(Cl)nc1N1CCCCC1c1ccc2cnnn2c1 (stereo not shown) [compound 291]	D (D represents a maximal response of < 40%)	> 2.1 µM	> 2.1 µM	F (F represents a maximal response of > 60%)	–	–	–	–	–	–	–
Fc1ccc(C2COCCN2c2nc(Cl)ncc2F)cc1Cl (racemic) [Compound 189]	F (F represents a maximal response of > 60%)	0.7 to 2.1 µM	–	F (F represents a maximal response of > 60%)	–	–	0.7 to 2.1 µM	–	–	–	–
FC(F)(F)c1cccc(C2CCCCN2c2ccnc(Cl)c2)c1 (stereo not shown) [compound 359]	D (D represents a maximal response of < 40%)	< 0.7 µM	< 0.7 µM	D (D represents a maximal response of < 40%)	–	–	–	–	–	–	–
Cc1cnc(Cl)nc1N1CCCCC1c1cccc(C(F)(F)F)c1 (stereo not shown) [compound 265]	F (F represents a maximal response of > 60%)	> 2.1 µM	> 2.1 µM	E (E represents a maximal response of 40-60%)	–	–	–	–	–	–	–
OC1CCN(c2nc(Cl)ncc2F)C(c2ccc(F)c(Br)c2)C1 (stereo not shown) [compound 241]	F (F represents a maximal response of > 60%)	> 2.1 µM	> 2.1 µM	E (E represents a maximal response of 40-60%)	–	–	–	–	–	–	–
COc1cccc(N2CCCCC2c2cccc(C(F)(F)F)n2)c1 (stereo not shown) [compound 455]	–	> 2.1 µM	–	–	E (E represents a maximal response of 40-60%)	D (D represents a maximal response of < 40%)	> 2.1 µM	–	–	–	–
O=S(=O)(c1ccc(Cl)cc1)N1CCCCC1c1ccnc(C(F)(F)F)c1 (racemic) [compound 57]	F (F represents a maximal response of > 60%)	> 2.1 µM	–	E (E represents a maximal response of 40-60%)	–	–	> 2.1 µM	F (F represents a maximal response of >60%)	> 2.1 µM	E (E represents a maximal response of 40-60%)	> 2.1 µM
COc1ccc(C2CCCCN2c2ccnc(Cl)n2)cc1Br (stereo not shown) [compound 226]	F (F represents a maximal response of > 60%)	> 2.1 µM	> 2.1 µM	F (F represents a maximal response of > 60%)	–	–	–	–	–	–	–
